The numbers were not newly measured in the CATMoS acute toxicity set (Mansouri et al. 2021), which cites them from elsewhere.

“And” between values parts separate entries of the source, which are not always exact repeats. Identical values can stand only once.

This series is described as follows: rat acute oral toxicity. The following applies: in vivo.
As for `CC(C)[C@]12CC(=O)[C@H](C)[C@H]1C2`, the LD50 was 500 mg/kg. As to `COc1ccc(C(=O)CCC(=O)O)c2cc(C)oc12`, the LD50 is 2160 mg/kg. With `CCCCCCCCCCCC=O`, the LD50 was 23000 mg/kg.

Consider `O=C(O)CSc1cc(Cl)ccc1Cl`, for which the LD50 was 1900 mg/kg.

Turning to `CCOC(=O)C(C)Oc1ccc(Oc2nc3ccc(Cl)cc3s2)cc1` (stereo not given), the LD50 was 907 mg/kg.

Consider `CCCCC(CC)COC(=O)c1ccccc1C(=O)O` (stereo not given), for which the LD50 is 1340 mg/kg. For `CCC[C@@H]1C[C@@H](C(=O)N[C@@H]([C@H]2O[C@H](SC)[C@H](O)[C@@H](O)[C@H]2O)[C@H](C)Cl)N(C)C1`, the LD50 is 2620 mg/kg and 2190 mg/kg. For the compound `CC(=O)N(/C(=N/c1cccnc1)NC#N)C(C)(C)C`, the median lethal dose (LD50) was 615 mg/kg. Take `O=[N+]([O-])c1ccc2c(N=Nc3ccc4ccccc4c3O)c(O)cc(S(=O)(=O)O)c2c1`: the median lethal dose (LD50) was 17600 mg/kg.

For `Cc1ccccc1-c1nnc(NN)s1`, the LD50 is 120 mg/kg. In the case of `COc1ccc([N+](=O)[O-])cc1CNCCO`, the LD50 was 30 mg/kg. For the compound `COP(=O)(OC)OC=C(Br)Br`, the LD50 is 253 mg/kg. For `CCCC(=O)OC/C=C(\C)CCC=C(C)C`, the LD50 is 10700 mg/kg.

`CNC(=O)O/N=C(\C)C(C)S(C)(=O)=O` (stereo not given): the LD50 is 458 mg/kg. In the case of `O=C1OCCC1N(C(=O)C1CC1)c1cccc(Cl)c1` (stereo not given), the LD50 is 174 mg/kg. Regarding `CC=CC(=O)O`, the LD50 is 1000 mg/kg. For the compound `CCOC(=O)Nc1ccc2c(c1)N(C(=O)CCN1CCOCC1)c1ccccc1S2`, the LD50 is 1000 mg/kg. With `CCCOP(=S)(CCl)Sc1ccc(Cl)cc1` (stereo not given), the LD50 is 80 mg/kg. Regarding `COc1c(C(=O)CCC(=O)O)ccc2c(C)c(C)oc12`, the LD50 was 3000 mg/kg.

In the case of `O=[N+]([O-])c1ccc(Cl)cc1C(F)(F)F`, the LD50 is 554 mg/kg.

Take `CNC(=O)Oc1ccccc1C1CCCC1`: the median lethal dose (LD50) is 187 mg/kg. As for `OC[C@H]1O[C@@H](O[C@@H]2[C@@H](CO)O[C@](O)(CO)[C@H]2O)[C@H](O)[C@@H](O)[C@H]1O`, the LD50 was 18200 mg/kg. `CS(=O)(=O)Oc1ccc(Cl)cc1Cl`: the LD50 is 2790 mg/kg. Regarding `CC(C)(C)C(O)/C(=C\c1ccc(Cl)cc1Cl)n1cncn1` (stereo not given), the LD50 was 474 mg/kg. `Nc1nc2cc(Cl)c(Br)cc2o1`: the LD50 is 140 mg/kg. Regarding `CC(C)(C)CC1(C)CO1` (stereo not given), the LD50 is 4920 mg/kg. For the compound `NC(=O)CBr`, the LD50 is 100 mg/kg. For `COc1cccc(C2(O)CCCCC2CN(C)C)c1` (stereo not given), the LD50 was 228 mg/kg. With `C=C(Cl)CCl`, the LD50 is 320 mg/kg.

As for `C[Si](C)(C)N=C=N[Si](C)(C)C`, the LD50 was 1730 mg/kg.

For the compound `CN(C)C(CSS(=O)(=O)c1ccccc1)CSS(=O)(=O)c1ccccc1`, the LD50 is 1100 mg/kg. As for `O=C(O)c1ccccc1Cl`, the LD50 was 1140 mg/kg. On to `Cc1cccc(C)c1N(COC(C)C)C(=O)CCl`, for which the LD50 is 975 mg/kg. As for `COC(=O)c1ccccc1OC`, the LD50 was 3800 mg/kg. Turning to `CN(Sc1ccccc1)C(=O)Oc1cccc2c1OC(C)(C)C2`, the LD50 is 25 mg/kg. Regarding `C[C@H]1C[C@H]2[C@@H]3CCC4=CC(=O)C=C[C@]4(C)[C@@]3(F)[C@@H](O)C[C@]2(C)[C@@]1(O)C(=O)COP(=O)(O)O`, the LD50 was 1880 mg/kg. On to `CCCCN(CCCC)SN(C)C(=O)ON=CC(C)(C)SC`, for which the LD50 was 12.5 mg/kg. As for `CN1[C@@H]2CC[C@H]1C[C@@H](OC(c1ccccc1)c1ccccc1)C2`, the LD50 was 940 mg/kg. In the case of `CCC1(C(C)CC(C)C)C(=O)NC(=O)NC1=O` (stereo not given), the LD50 was 75 mg/kg. As to `CC(C)OC(=O)C=CC(=O)OC(C)C`, the LD50 is 2140 mg/kg and 3250 mg/kg. Take `CC=C(CC)C(=O)NC(N)=O`: the LD50 was 2500 mg/kg. As to `O=CC(Br)(Br)Br`, the LD50 is 100 mg/kg. Regarding `Nc1c(S(=O)(=O)O)cc(Nc2ccc(S(=O)(=O)O)c(Nc3nc(Cl)nc(Cl)n3)c2)c2c1C(=O)c1ccccc1C2=O`, the LD50 is 8980 mg/kg. Regarding `OCCSSCCO`, the LD50 is 173 mg/kg.

As for `CCOCCOC(=O)C(C)Oc1ccc(Oc2ncc(C(F)(F)F)cc2Cl)cc1` (stereo not given), the LD50 was 518 mg/kg. For `S=c1[nH]cnc2[nH]cnc12`, the LD50 is 277 mg/kg. Turning to `CC(C)OC(C)C`, the LD50 was 8470 mg/kg. `CC(C)c1cc([N+](=O)[O-])cc([N+](=O)[O-])c1O`: the LD50 is 63 mg/kg. `CCCCCCNC(=O)n1cc(F)c(=O)[nH]c1=O`: the LD50 was 268 mg/kg. As for `C#CCN1C(=O)CN=C(c2ccccc2)c2cc([N+](=O)[O-])ccc21`, the LD50 was 876 mg/kg. With `CC(C)=CC(N)=O`, the LD50 is 3560 mg/kg. For `CCCCCCCCCCNCCCCCCCC`, the LD50 was 2400 mg/kg. Take `O=C(c1cccnc1)N1CCN=C1Nc1c(Cl)cccc1Cl`: the LD50 is 80 mg/kg. `CC(C)(N1CC1C#N)N1CC1C(N)=O` (stereo not given): the LD50 was 3100 mg/kg. `O=C(NC1CCSC1=O)c1cccnc1` (stereo not given): the LD50 was 4500 mg/kg. In the case of `CC[N+](CC)(CC)CCOC(=O)C(C1CCCC1)C1CCCC1`, the 50% lethal dose (LD50) was 780 mg/kg. `CC(C)[C@@]1(O)[C@@H](OC(=O)c2ccc[nH]2)[C@@]2(O)[C@@]3(C)C[C@]4(O)O[C@@]5([C@H](O)[C@@H](C)CC[C@]35O)[C@@]2(O)[C@@]14C`: the LD50 is 750 mg/kg. In the case of `O=C=NCc1ccc(CN=C=O)cc1`, the LD50 is 4500 mg/kg. Regarding `C#CCN(C)c1ccccc1OC(=O)NC`, the LD50 is 60 mg/kg. For `CC(C)OC(=S)S`, the LD50 was 1700 mg/kg and 1250 mg/kg.
